Experimental data as given in US9873693B2 (Sunesis Pharmaceuticals, Inc., priority 2006, dated 2018).

System: Phospho-T308 Akt
Test: Phospho-T308 Akt detection using immunoblot (western blot) in PC-3 cells
Assay type: cell-based
Settings: 2 μM or 5 μM, concentration not given
Outline: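 PC-3 prostate cells, cultured overnight in F12K plus 10% FBS, were treated for 2 h at 37 °C in serum-free medium with compound A (1000× DMSO dilutions). Lysate protein was immunoblotted with anti-phospho-Akt Thr308. Bands were quantified by background-subtracted densitometry, giving EC50 by non-linear regression and percent decrease at 2 μM and 5 μM.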

Question: `O=C(NCc1nc(-c2c[nH]c3ncccc23)cs1)c1cccn(Cc2ccc(F)c(F)c2)c1=O` [Cpd 112] was tested. Which “Percent Inhibition of phospho-Akt (308) By Western” value did it give?
Answer: d (inhibition of less than 25%)
